{"source": "patent US20240277740A1", "about": "“TREATMENT OF KNOWN AND UNKNOWN VIRAL INFECTION WITH LIPID AGENTS” (Viratides, LLC, priority 2020, published 2024)", "key": {"uninfected Vero E6 cells": {"tested_on": "uninfected Vero E6 cells", "settings": "for Viability of Uninfected Vero E6 Cells: 4-day treatment, mean ± s.d. of duplicates; for Viability of Uninfected Vero E6 Cells (A540): 4 days, raw duplicates"}, "[1]": {"tested_on": "SARS-CoV-2 (MEX-BC2/2020)", "assay": "Live SARS-CoV-2 CPE-based antiviral assay in Vero E6 cells (neutral red)", "type": "cell-based"}}, "note": "Several values for one entry are separate records, joined by “and”; a condition that tells them apart may be missing. Equal values may be shown once. Read-outs that look alike come from different tables or passages of the source."}
{"smiles": "C[S+](C)[O-]", "note": "[DMSO, reference compound]", "values": [{"measurement": "block of cell viability", "setting": "uninfected Vero E6 cells; tested at 10%", "result": "more than 95%"}]}
{"smiles": "CCCCCCCC/C=C\\CCCCCCCCCCCCCC(=O)N[C@@H](CO[C@@H]1O[C@H](CO)[C@H](O)[C@H](OS(=O)(=O)O)[C@H]1O)[C@H](O)/C=C/CCCCCCCCCCCCC", "note": "[Sulfatide 24:1, C24:1 3′-sulfo Galactosylceramide (d18:1/24:1(15Z))]", "values": [{"measurement": "CC50", "setting": "uninfected Vero E6 cells", "result": ">100", "unit": "mg/L"}, {"measurement": "cytotoxicity in viability assay (in words)", "setting": "uninfected Vero E6 cells", "result": "dose-dependent trend of cytotoxicity"}, {"measurement": "Viability of Uninfected Vero E6 Cells", "setting": "uninfected Vero E6 cells; 0.78 μg/mL", "result": "89.8 ± 5.8", "unit": "% vehicle"}, {"measurement": "Viability of Uninfected Vero E6 Cells (A540)", "setting": "uninfected Vero E6 cells; 0.78 μg/mL", "result": "0.457 and 0.424"}, {"measurement": "Viability of Uninfected Vero E6 Cells", "setting": "uninfected Vero E6 cells; 1.6 μg/mL", "result": "99.3 ± 1.4", "unit": "% vehicle"}, {"measurement": "Viability of Uninfected Vero E6 Cells (A540)", "setting": "uninfected Vero E6 cells; 1.6 μg/mL", "result": "0.495 and 0.487"}, {"measurement": "Viability of Uninfected Vero E6 Cells", "setting": "uninfected Vero E6 cells; 3.1 μg/mL", "result": "97.3 ± 1.4", "unit": "% vehicle"}, {"measurement": "Viability of Uninfected Vero E6 Cells (A540)", "setting": "uninfected Vero E6 cells; 3.1 μg/mL", "result": "0.487 and 0.479"}, {"measurement": "Viability of Uninfected Vero E6 Cells", "setting": "uninfected Vero E6 cells; 6.25 μg/mL", "result": "95.7 ± 2.3", "unit": "% vehicle"}, {"measurement": "Viability of Uninfected Vero E6 Cells (A540)", "setting": "uninfected Vero E6 cells; 6.25 μg/mL", "result": "0.483 and 0.470"}, {"measurement": "Viability of Uninfected Vero E6 Cells", "setting": "uninfected Vero E6 cells; 12.5 μg/mL", "result": "95.6 ± 3.5", "unit": "% vehicle"}, {"measurement": "Viability of Uninfected Vero E6 Cells (A540)", "setting": "uninfected Vero E6 cells; 12.5 μg/mL", "result": "0.486 and 0.466"}, {"measurement": "Viability of Uninfected Vero E6 Cells", "setting": "uninfected Vero E6 cells; 25 μg/mL", "result": "85.8 ± 11.0", "unit": "% vehicle"}, {"measurement": "Viability of Uninfected Vero E6 Cells (A540)", "setting": "uninfected Vero E6 cells; 25 μg/mL", "result": "0.468 and 0.405"}, {"measurement": "Viability of Uninfected Vero E6 Cells", "setting": "uninfected Vero E6 cells; 50 μg/mL", "result": "73.7 ± 13.1", "unit": "% vehicle"}, {"measurement": "Viability of Uninfected Vero E6 Cells (A540)", "setting": "uninfected Vero E6 cells; 50 μg/mL", "result": "0.425 and 0.350"}, {"measurement": "Viability of Uninfected Vero E6 Cells", "setting": "uninfected Vero E6 cells; 100 μg/mL", "result": "63.8 ± 7.9", "unit": "% vehicle"}, {"measurement": "Viability of Uninfected Vero E6 Cells (A540)", "setting": "uninfected Vero E6 cells; 100 μg/mL", "result": "0.370 and 0.325"}, {"measurement": "Inhibition of SARS-CoV-2 (MEX-BC2/2020) Virus-Induced CPE", "setting": "[1]; 0.78 μg/mL, average ± s.d. of duplicates", "result": "−3.4 ± 0.6", "unit": "% mock"}, {"measurement": "Raw OD - Absorbance (540 nm), infected cells", "setting": "[1]; 0.78 μg/mL, duplicates", "result": "0.121 and 0.118"}, {"measurement": "Inhibition of SARS-CoV-2 (MEX-BC2/2020) Virus-Induced CPE", "setting": "[1]; 1.6 μg/mL, average ± s.d. of duplicates", "result": "−1.7 ± 4.1", "unit": "% mock"}, {"measurement": "Raw OD - Absorbance (540 nm), infected cells", "setting": "[1]; 1.6 μg/mL, duplicates", "result": "0.137 and 0.115"}, {"measurement": "Inhibition of SARS-CoV-2 (MEX-BC2/2020) Virus-Induced CPE", "setting": "[1]; 3.1 μg/mL, average ± s.d. of duplicates", "result": "−3.6 ± 1.1", "unit": "% mock"}, {"measurement": "Raw OD - Absorbance (540 nm), infected cells", "setting": "[1]; 3.1 μg/mL, duplicates", "result": "0.122 and 0.116"}, {"measurement": "Inhibition of SARS-CoV-2 (MEX-BC2/2020) Virus-Induced CPE", "setting": "[1]; 6.25 μg/mL, average ± s.d. of duplicates", "result": "−3.8 ± 1.1", "unit": "% mock"}, {"measurement": "Raw OD - Absorbance (540 nm), infected cells", "setting": "[1]; 6.25 μg/mL, duplicates", "result": "0.115 and 0.121"}, {"measurement": "Inhibition of SARS-CoV-2 (MEX-BC2/2020) Virus-Induced CPE", "setting": "[1]; 12.5 μg/mL, average ± s.d. of duplicates", "result": "1.3 ± 3.9", "unit": "% mock"}, {"measurement": "Raw OD - Absorbance (540 nm), infected cells", "setting": "[1]; 12.5 μg/mL, duplicates", "result": "0.127 and 0.18"}, {"measurement": "Inhibition of SARS-CoV-2 (MEX-BC2/2020) Virus-Induced CPE", "setting": "[1]; 25 μg/mL, average ± s.d. of duplicates", "result": "1.9 ± 2.2", "unit": "% mock"}, {"measurement": "Raw OD - Absorbance (540 nm), infected cells", "setting": "[1]; 25 μg/mL, duplicates", "result": "0.134 and 0.146"}, {"measurement": "Inhibition of SARS-CoV-2 (MEX-BC2/2020) Virus-Induced CPE", "setting": "[1]; 50 μg/mL, average ± s.d. of duplicates", "result": "21.6 ± 13.0", "unit": "% mock"}, {"measurement": "Raw OD - Absorbance (540 nm), infected cells", "setting": "[1]; 50 μg/mL, duplicates", "result": "0.180 and 0.250"}, {"measurement": "Inhibition of SARS-CoV-2 (MEX-BC2/2020) Virus-Induced CPE", "setting": "[1]; 100 μg/mL, average ± s.d. of duplicates", "result": "61.3 ± 8.5", "unit": "% mock"}, {"measurement": "Raw OD - Absorbance (540 nm), infected cells", "setting": "[1]; 100 μg/mL, duplicates", "result": "0.390 and 0.344"}, {"measurement": "IC50 (antiviral)", "setting": "[1]; Vero E6, 96 h, neutral red", "result": 84.9, "unit": "mg/L"}, {"measurement": "prevention of virus-induced CPE (in words)", "setting": "[1]; at the two highest concentrations tested, 50 μg/mL and 100 μg/mL", "result": "prevented the virus-induced cytopathic effect (CPE) in a dose-dependent manner"}]}
{"smiles": "N#C[C@@]1(c2ccc3c(N)ncnn23)O[C@H](CO)[C@@H](O)[C@H]1O", "note": "[GS-441524, reference compound]", "values": [{"measurement": "Inhibition of SARS-CoV-2 (MEX-BC2/2020) Virus-Induced CPE", "setting": "[1]; 0.03 μM, single data point", "result": 0.09, "unit": "% mock"}, {"measurement": "Inhibition of SARS-CoV-2 (MEX-BC2/2020) Virus-Induced CPE", "setting": "[1]; 0.08 μM, single data point", "result": 1.1, "unit": "% mock"}, {"measurement": "Inhibition of SARS-CoV-2 (MEX-BC2/2020) Virus-Induced CPE", "setting": "[1]; 0.25 μM, single data point", "result": 16.1, "unit": "% mock"}, {"measurement": "Raw OD - Absorbance (540 nm), infected cells", "setting": "[1]; 0.25 μM, single data point", "result": 0.194}, {"measurement": "Inhibition of SARS-CoV-2 (MEX-BC2/2020) Virus-Induced CPE", "setting": "[1]; 0.74 μM, single data point", "result": 134.9, "unit": "% mock"}, {"measurement": "Raw OD - Absorbance (540 nm), infected cells", "setting": "[1]; 0.74 μM, single data point", "result": 0.648}, {"measurement": "Inhibition of SARS-CoV-2 (MEX-BC2/2020) Virus-Induced CPE", "setting": "[1]; 1 μM", "result": 110.2, "unit": "% mock"}, {"measurement": "Raw OD - Absorbance (540 nm), infected cells", "setting": "[1]; 1 μM", "result": "0.554 and 0.553"}, {"measurement": "Inhibition of SARS-CoV-2 (MEX-BC2/2020) Virus-Induced CPE", "setting": "[1]; 6.7 μM, single data point", "result": 116.6, "unit": "% mock"}, {"measurement": "Raw OD - Absorbance (540 nm), infected cells", "setting": "[1]; 6.7 μM, single data point", "result": 0.578}, {"measurement": "Inhibition of SARS-CoV-2 (MEX-BC2/2020) Virus-Induced CPE", "setting": "[1]; 10 μM", "result": 100.0, "unit": "% mock"}, {"measurement": "Raw OD - Absorbance (540 nm), infected cells", "setting": "[1]; 10 μM", "result": "0.507 and 0.522"}, {"measurement": "IC50", "setting": "[1]; Severe acute respiratory syndrome coronavirus 2, Vero C1008, Vero E6, 96 h, estimated by GraphPad Prism, R2 = 0.977", "result": "~0.28", "unit": "µM"}, {"measurement": "concentrations at which virus-induced CPE was completely prevented", "setting": "[1]; Vero E6", "result": "≥ 0.74", "unit": "µM"}, {"measurement": "prevention of virus-induced CPE by control inhibitor (in words)", "setting": "[1]; quality control of infectivity assay", "result": "prevented completely the virus-induced CPE"}]}
